Laboratory results as given in patent publication US20180201609A1 (AURIGENE DISCOVERY TECHNOLOGIES LIMITED, priority 2015, published 2018).
Where a name gives a salt, the structure may show the parent alone.

Target: T1, IRAK-4 enzyme (Homo sapiens, UniProt Q9NWZ3)
T1 construct: purchased Millipore, USA
T1 sequence (Q9NWZ3 1-460): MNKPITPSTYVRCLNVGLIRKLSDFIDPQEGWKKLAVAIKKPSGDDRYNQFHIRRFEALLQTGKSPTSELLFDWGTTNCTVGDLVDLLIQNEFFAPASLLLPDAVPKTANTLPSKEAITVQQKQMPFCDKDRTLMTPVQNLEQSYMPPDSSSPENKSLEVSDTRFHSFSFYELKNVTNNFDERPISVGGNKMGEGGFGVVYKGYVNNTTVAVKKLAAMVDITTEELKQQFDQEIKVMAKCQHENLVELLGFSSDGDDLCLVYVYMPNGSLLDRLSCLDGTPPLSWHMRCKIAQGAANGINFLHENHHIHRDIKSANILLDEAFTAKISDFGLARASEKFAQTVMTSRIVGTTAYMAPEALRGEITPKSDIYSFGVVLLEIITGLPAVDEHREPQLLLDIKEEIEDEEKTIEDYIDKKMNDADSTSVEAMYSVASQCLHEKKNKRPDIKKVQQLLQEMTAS
Test: IRAK-4 Biochemical Assay (TR-FRET)
Conditions: recombinant IRAK-4 kinase, 20 μM ATP

Row | Structure (SMILES) | inhibition at 0.1 µM (0.1 μM compound) [%] | inhibition at 1 µM (1 μM compound) [%] | % inhibition of IRAK-4 activity @0.1 μM (0.1 μM compound) [%] | % inhibition of IRAK-4 activity @1 μM (1 μM compound) [%]
1 | Cn1cc2cc(NC(=O)c3cncc(N4CCC(O)C4)n3)c(N3CCCCC3)cc2n1 (stereo not drawn) [Example 65, 6-(3-hydroxypyrrolidin-1-yl)-N-(2-methyl-6-(piperidin-1-yl)-2H-indazol-5-yl)pyrazine-2-carboxamide] | 91 | 98 | – | –
2 | Cn1cc2cc(NC(=O)c3cncc(N4CCC(O)C4)n3)c(C3CC3)cc2n1 (stereo not drawn) [Example 66, N-(6-cyclopropyl-2-methyl-2H-indazol-5-yl)-6-(3-hydroxypyrrolidin-1-yl)pyrazine-2-carboxamide hydrochloride] | 23 | 75 | – | –
3 | Cl.Cn1cc2cc(NC(=O)c3cncc(N4CCC(O)C4)n3)c(N3CCCCC3)cc2n1 (stereo not drawn) [Example 67, 6-(3-hydroxypyrrolidin-1-yl)-N-(2-methyl-6-(piperidin-1-yl)-2H-indazol-5-yl)pyrazine-2-carboxamide hydrochloride] | – | – | 82 | 92
4 | Cn1cc2cc(NC(=O)c3cccc(N4CCC(O)C4)n3)c(N3CCOCC3)cc2n1 (stereo not drawn) [Example 68, 6-(3-hydroxypyrrolidin-1-yl)-N-(2-methyl-6-morpholino-2H-indazol-5-yl)picolinamide] | 75 | 96 | – | –
5 | Cn1cc2cc(NC(=O)c3cc(N4CCC(O)C4)ccn3)c(N3CCCCC3)cc2n1 (stereo not drawn) [Example 69, 4-(3-hydroxypyrrolidin-1-yl)-N-(2-methyl-6-(piperidin-1-yl)-2H-indazol-5-yl)picolinamide] | 7 | 9 | – | –

Other lines, results leading:

Row | inhibition at 0.1 µM (0.1 μM compound) [%] | inhibition at 1 µM (1 μM compound) [%] | % inhibition of IRAK-4 activity @0.1 μM (0.1 μM compound) [%] | % inhibition of IRAK-4 activity @1 μM (1 μM compound) [%] | Structure (SMILES)
6 | 27 | 82 | – | – | Cc1cc2nn(C)cc2cc1NC(=O)c1cccc(N2CCC(O)C2)n1 (stereo not drawn) [Example 70, N-(2,6-dimethyl-2H-indazol-5-yl)-6-(3-hydroxypyrrolidin-1-yl)picolinamide]
7 | 67 | 95 | – | – | Cn1cc2cc(NC(=O)c3cc(N4CCC(O)C4)ccn3)c(C3CC3)cc2n1 (stereo not drawn) [Example 71, N-(6-cyclopropyl-2-methyl-2H-indazol-5-yl)-4-(3-hydroxypyrrolidin-1-yl)picolinamide hydrochloride]
8 | 29 | 86 | – | – | Cn1cc2cc(NC(=O)c3ccnc(N4CCC(O)C4)n3)c(C3CC3)cc2n1 (stereo not drawn) [Example 72, N-(6-cyclopropyl-2-methyl-2H-indazol-5-yl)-2-(3-hydroxypyrrolidin-1-yl)pyrimidine-4-carboxamide]
9 | 10 | 51 | – | – | Cn1cc2cc(NC(=O)c3ccc(N4CCC(O)C4)cn3)c(N3CCCCC3)cc2n1 (stereo not drawn) [Example 73, 5-(3-hydroxypyrrolidin-1-yl)-N-(2-methyl-6-(piperidin-1-yl)-2H-indazol-5-yl)picolinamide]
